Laboratory results taken from PMC3466204 (PLoS ONE, 2012).
Several values for one entry are separate records, joined by “and”; a condition that tells them apart may be missing. Equal entries are not always repeated. Ends that are not written are not given here.

Assays:
[1] = test system: Salmonella enterica serovar Typhimurium UK1; assay: Broth MIC, Gram negative; assay type: cell-based; conditions: cells washed in 10 mM SPB pH 7.4, 2×10^5 CFU/mL, 2 h RT with peptide, then double strength LB, RT overnight, mean of triplicate assays
Description: (§1) Minimum inhibitory concentration determinations for Gram negative strains were carried out in triplicate in 96 well microtitre plates. Briefly, bacteria (E. coli, C. sakazakii and Salmonella) grown to mid-logarithmic phase were harvested by centrifugation, washed with 10 mM SPB at pH 7.4, and diluted to 2×10^5 colony-forming units (CFU)/mL in SPB. Nisin and nisin derivative peptides were resuspended in sterile HPLC water and 50 µL aliquots were added to wells containing 50 µL of 2×10^5 CFU of bacteria. Plates were incubated at RT for two hours with agitation. Double strength Luria–Bertani (LB) broth (100 µL) was added and the plates were incubated at RT overnight, the MIC was taken as the lowest concentration at which growth was inhibited.

E. coli 0157-H7 = assay: Broth MIC, Gram negative; assay type: cell-based; conditions: cells washed in 10 mM SPB pH 7.4, 2×10^5 CFU/mL, 2 h RT with peptide, then double strength LB, RT overnight, mean of triplicate assays
Description: as §1

C. sakazakii DPC 6440 = assay: Broth MIC, Gram negative; assay type: cell-based, Cronobacter sakazakii; conditions: cells washed in 10 mM SPB pH 7.4, 2×10^5 CFU/mL, 2 h RT with peptide, then double strength LB, RT overnight, mean of triplicate assays
Description: as §1

S. aureus RF122 [2] = assay: Deferred antagonism assay of producing strains; assay type: cell-based
Description: (§2) Deferred antagonism assays were performed by replicating strains on GM17 agar plates and allowing them to grow overnight before overlaying with either GM17/BHI/TSB-YE/MH agar (0.75% w/v agar) seeded with the appropriate indicator strain. For higher throughput screening of the S29X bank, deferred antagonism assays were performed by replicating strains using a 96 pin replicator (Boekel) or spotting 5 µl of a fresh overnight culture on GM17 agar plates and allowing them to grow overnight. Following overnight growth the strains were subjected to UV radiation for 30 minutes prior to overlaying with either GM17/BHI/TS/MH agar (0.75% w/v agar) seeded with the appropriate indicator.

L. monocytogenes LO28 [3] = assay: Deferred antagonism assay of producing strains; assay type: cell-based; conditions: L. monocytogenes LO28, data not shown
Description: as §2

S. aureus SA113 = assay: Deferred antagonism assay of producing strains; assay type: cell-based; conditions: zone of inhibition around producer colony
Description: as §2

[4] = test system: ST 528 (Methicillin resistant S. aureus); assay: Broth MIC, Gram positive; assay type: cell-based; conditions: broth microtitre, BSA pre-treated plates, 10^5 cfu ml^−1, 2-fold dilutions from 2.5 µM, 16 h 37°C, purified peptide, mean of triplicate assays
Description: (§3) Minimum inhibitory concentration determinations for Gram positive organisms were carried out in triplicate in microtitre plates (Sarstedt). 96 well microtitre plates were pre-treated with bovine serum albumin (BSA) prior to addition of the peptides. Briefly, to each well of the microtitre plate 200 µL of phosphate buffered saline (PBS) containing 1% (w/v) bovine serum albumin (PBS/BSA) was added and incubated at 37°C for 30 min. The wells were washed with 200 µL PBS and allowed to dry. Target strains were grown overnight in the appropriate conditions and medium, subcultured into fresh broth and allowed to grow to an OD600 of ∼0.5, diluted to a final concentration of 10^5 cfu ml^−1 in a volume of 0.2 ml. Wild type nisin and nisin mutant peptides were adjusted to a 10 µM (S. mitis, B. cereus), 7.5 µM (L. monocytogenes), 5 µM (hVISA) 2.5 µM (MRSA, E. durans), or 500 nM (L. lactis strains) starting concentration and 2-fold serial dilutions of each peptide were added to the target strain.

S. aureus RF122 [5] = assay: Broth MIC, Gram positive; assay type: cell-based; conditions: broth microtitre, BSA pre-treated plates, 10^5 cfu ml^−1, 2-fold dilutions, 16 h 37°C, purified peptide, mean of triplicate assays
Description: as §3

[6] = test system: ST 530 (Methicillin resistant S. aureus); assay: Broth MIC, Gram positive; assay type: cell-based; conditions: broth microtitre, BSA pre-treated plates, 10^5 cfu ml^−1, 2-fold dilutions from 2.5 µM, 16 h 37°C, purified peptide, mean of triplicate assays
Description: as §3

L. monocytogenes LO28 [7] = assay: Broth MIC, Gram positive; assay type: cell-based; conditions: broth microtitre, BSA pre-treated plates, 10^5 cfu ml^−1, 2-fold dilutions from 7.5 µM, 16 h 37°C, purified peptide, mean of triplicate assays
Description: as §3

[8] = test system: hVISA 32679 (heterogenous Vancomycin-intermediate S. aureus); assay: Broth MIC, Gram positive; assay type: cell-based; conditions: broth microtitre, BSA pre-treated plates, 10^5 cfu ml^−1, 2-fold dilutions from 5 µM, 16 h 37°C, purified peptide, mean of triplicate assays
Description: as §3

L. lactis MG1363 = assay: Broth MIC, Gram positive; assay type: cell-based; conditions: broth microtitre, BSA pre-treated plates, 10^5 cfu ml^−1, 2-fold dilutions from 500 nM, 16 h, purified peptide, mean of triplicate assays
Description: as §3

L. lactis HP = assay: Broth MIC, Gram positive; assay type: cell-based; conditions: broth microtitre, BSA pre-treated plates, 10^5 cfu ml^−1, 2-fold dilutions from 500 nM, 16 h, purified peptide, mean of triplicate assays
Description: as §3

L. monocytogenes 10403S = assay: Broth MIC, Gram positive; assay type: cell-based; conditions: broth microtitre, BSA pre-treated plates, 10^5 cfu ml^−1, 2-fold dilutions from 7.5 µM, 16 h 37°C, purified peptide, mean of triplicate assays
Description: as §3

Lactococcus lactis HP = assay: Agarose-based assay of cell-free supernatants of S29X producing strains
Outline: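 Deferred antagonism in 1% agarose underlay (10 mM sodium phosphate, pH 7.4) seeded with mid-log indicator bacteria at 2×10^7 CFU/mL. Cell-free supernatant or purified peptide placed in 4.6 mm wells, held 3 h at 30 °C (L. lactis), 37 °C (Gram-positives) or RT (Gram-negatives). Plates were then overlaid with GM17 or LB agarose and incubated overnight.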

E. durans 5133 = assay: Broth MIC, Gram positive; assay type: cell-based, Enterococcus durans; conditions: broth microtitre, BSA pre-treated plates, 10^5 cfu ml^−1, 2-fold dilutions from 2.5 µM, 16 h 37°C, purified peptide, mean of triplicate assays
Description: as §3

E. coli = assay: Kill curve analysis; assay type: cell-based; conditions: 33 mg/L purified peptide, 2×10^5 cfu ml^−1, 37°C for 1 hour
Description: Using purified peptide in each case, 10 mM sodium phosphate buffer washed C. sakazakii, E. coli and Salmonella strains were diluted to a final concentration of 2×10^5 cfu ml^−1 and were exposed to nisin A, S29G and S29A at a concentration of 33 mg/L. Following incubation at 37°C for 1 hour, bacterial growth was monitored through plate counts.

## S29G: bioengineered nisin A derivative with a serine to glycine change at position 29 (ITSISLCTPGCKTGALMGCNMKTATCHCGIHVSK; thioether (positions not given here); not fully specified (residues 2, 5, 33, bridges); UniProt P13068 24-57, looked up, variant S29G)
[1]
  MIC: 50.28 mg/L and 15 µM
E. coli 0157-H7
  MIC: 25.14 mg/L and 7.5 µM
C. sakazakii DPC 6440
  MIC: 6.28 mg/L and 1.875 µM
S. aureus RF122 [2]
  Bioactivity of producer relative to nisin A producer: increases the bioactivity
L. monocytogenes LO28 [3]
  Bioactivity of producer relative to nisin A producer: comparable to that of nisin A
S. aureus SA113
  Bioactivity of producer relative to nisin A producer: enhanced activity
[4]
  MIC: 0.26 mg/L and 0.078 µM
S. aureus RF122 [5]
  MIC: 0.52 mg/L and 0.156 µM
[6]
  MIC: 0.26 mg/L and 0.078 µM
L. monocytogenes LO28 [7]
  MIC: 6.28 mg/L and 1.875 µM
[8]
  MIC: 2 mg/L and 0.625 µM
L. lactis MG1363
  MIC: 0.4 mg/L and 0.125 µM
L. lactis HP
  MIC: 0.1 mg/L and 0.031 µM
L. monocytogenes 10403S
  MIC: 6.28 mg/L and 1.875 µM
Lactococcus lactis HP; agarose (1%) GM17 assay, 10 µl cell-free supernatant of overnight producing culture in 4.6 mm wells, L. lactis HP, 30°C
  Zone Diameter (mm): 15.4±0.5 mm
Lactococcus lactis HP; agarose assay of supernatants against L. lactis HP, wild type serine = 100
  % difference (zone relative to wild type): 101%
E. durans 5133
  MIC: 0.26 mg/L and 0.078 µM
E. coli
  Killing compared with nisin A (plate counts): greater activity than wildtype nisin A
